Experimental findings from US20260262643A1, “HERBICIDAL BENZOXAZINES” (FMC CORPORATION, priority 2022, published 2026) are described below.

For one assay, the system named is horseweed. Briefly: Test A postemergence. It is filed as in vivo, Erigeron canadensis. The note with it: postemergence, 10 days; for pest or weed control at 500 g/ha / pest or weed control at 125 g/ha: Erigeron canadensis, post-emergence, 240 h; for pest or weed control at 500 g/ha: read-out: Plant response rating, Horseweed; for pest or weed control at 125 g/ha: read-out: Horseweed plant response rating. A digest of the protocol:
(§1)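 Loam/sand soil; pre-em directed soil spray at planting, post-em spray at 1–2 leaf (2–10 cm). Compound in non-phytotoxic solvent + surfactant. Greenhouse 10 d; visual injury vs untreated, 0 = no effect, 100 = complete control.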

For assay [1], the system named is oat, wild. Kind of assay: Test A postemergence. Type of assay: in vivo, Avena fatua. The conditions noted are these: postemergence, 10 days; for Oat, Wild plant response rating: 0 to 100 scale, 0 no effect, 100 complete control. A digest of the protocol: as §1
For another assay, the system named is foxtail, giant. Kind of assay: Test A preemergence. It is filed as in vivo, Setaria faberi. The conditions noted are these: 0 to 100 scale. A digest of the protocol:
as §1

The subject of assay [2] is pigweed, palmer. Kind of assay: Test A postemergence. Type of assay: in vivo, Amaranthus palmeri. The note with it: postemergence, 10 days; for pest or weed control at 500 g/ha / pest or weed control at 125 g/ha: Amaranthus palmeri, post-emergence, 240 h; for pest or weed control at 500 g/ha: read-out: Plant response rating, Pigweed, Palmer; for pest or weed control at 125 g/ha: read-out: Pigweed, Palmer plant response rating. A digest of the protocol:
as §1

In another assay the test system is sedge, umbrella. Kind of assay: Test B flooded paddy test. It is filed as in vivo, Cyperus difformis. The conditions noted are these: 250 g ai/ha, Flood, 13 days, 0 to 100 scale (0 no effect, 100 complete control); for pest or weed control at 250 g/ha: Cyperus difformis, 312 h, read-out: Plant response rating, Sedge, Umbrella. A digest of the protocol: (§2)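 Flooded to 3 cm at treatment time, 2-leaf plants got the test compound applied straight into the paddy water. They then stayed under constant flood in a greenhouse for 13 days. Ratings used a 0 to 100 visual scale.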

Assay [3] relates to ryegrass, Italian. Kind of assay: Test A preemergence. It is filed as in vivo, Lolium multiflorum. The conditions noted are these: 0 to 100 scale; for pest or weed control at 500 g/ha / pest or weed control at 125 g/ha: Lolium multiflorum, pre-emergence, 240 h, read-out: Plant response rating, Ryegrass, Italian. The essentials: as §1
The next assay deals with galium. Briefly: Test A postemergence. The note with it: postemergence, 10 days; for pest or weed control at 500 g/ha / pest or weed control at 125 g/ha: Galium, post-emergence, 240 h; for pest or weed control at 500 g/ha: read-out: Plant response rating, Galium; for pest or weed control at 125 g/ha: read-out: Galium plant response rating. It is filed as in vivo, Galium aparine. The essentials: as §1

The test system of assay [4] is ryegrass, Italian. Kind of assay: Test A postemergence. It is filed as in vivo, Lolium multiflorum. The conditions noted are these: postemergence, 10 days; for pest or weed control at 500 g/ha / pest or weed control at 125 g/ha: Lolium multiflorum, post-emergence, 240 h; for pest or weed control at 500 g/ha: read-out: Plant response rating, Ryegrass, Italian; for pest or weed control at 125 g/ha: read-out: Ryegrass, Italian plant response rating. A digest of the protocol: as §1

In a further assay the test system is barnyardgrass. Briefly: Test B flooded paddy test. Type of assay: in vivo, Echinochloa crus-galli. The conditions noted are these: 250 g ai/ha, Flood, 13 days, 0 to 100 scale (0 no effect, 100 complete control). The essentials:
as §2

Assay [5] concerns pigweed, palmer. Briefly: Test A preemergence. It is filed as in vivo, Amaranthus palmeri. The note with it: 0 to 100 scale; for pest or weed control at 500 g/ha / pest or weed control at 125 g/ha: Amaranthus palmeri, pre-emergence, 240 h, read-out: Plant response rating, Pigweed, Palmer. A digest of the protocol: as §1
Another assay deals with soybean. Briefly: Test A postemergence. The note with it: postemergence, 10 days; for plant injury at 500 g/ha / plant injury at 125 g/ha: Glycine max, post-emergence, 240 h; for plant injury at 500 g/ha: read-out: Plant response rating, Soybean; for plant injury at 125 g/ha: read-out: Soybean plant response rating. It is filed as in vivo, Glycine max. A digest of the protocol:
as §1

In assay [6] the test system is oat, wild. Kind of assay: Test A preemergence. It is filed as in vivo, Avena fatua. The note with it: 0 to 100 scale. A digest of the protocol:
as §1

The next assay concerns corn. Briefly: Test A postemergence. It is filed as in vivo, Zea mays. The note with it: postemergence, 10 days; for Corn plant response rating (crop injury, 0 = no effect, 100 = complete kill) at 500 g/ha / plant injury at 125 g/ha: Zea mays, post-emergence, 240 h; for plant injury at 125 g/ha: read-out: Corn plant response rating. The essentials:
as §1

The mark [7] stands for this setting: 125 g ai/ha, 0 to 100 scale, 0 no effect, 100 complete control.
[8] abbreviates: 500 g ai/ha, visual injury, 0 to 100 scale (0 no effect, 100 complete control).
[9] abbreviates: 500 g ai/ha, visual injury after 10 days, 0 is no effect, 100 is complete control.
Where [10] appears, read: 125 g ai/ha, 0 to 100 scale (0 no effect, 100 complete control).
Setting [11] is: Avena fatua, pre-emergence, 240 h, 125 g ai/ha, read-out: Plant response rating, Oat, Wild.

`CC(C)c1ncn(-c2cc(C(=O)N3C[C@H](C)Oc4c(Cl)cccc43)c3ccccc3c2)n1` [Compound 145]: the “Horseweed plant response rating” value with horseweed (setting [7]) was determined as 0. Besides, the pest or weed control at 500 g/ha with horseweed (setting [8]) was determined as 0%; with foxtail, giant (Setaria faberi, pre-emergence, 240 h, 500 g ai/ha, visual injury after 10 days, 0 is no effect, 100 is complete control, read-out: Plant response rating, Foxtail, Giant), 80%; in the assay with pigweed, palmer [2] (setting [8]), 90%; in the assay with ryegrass, Italian [3] (setting [9]) it was 90%; in the assay with galium (setting [8]), 70%; in the assay with ryegrass, Italian [4] (setting [8]), 40%. The pest or weed control at 500 g/ha with pigweed, palmer [5] (setting [9]) came to 100%. Besides, in the assay on oat, wild [1] (125 g ai/ha), the “Oat, Wild plant response rating” value is 10. For the same molecule, the “Plant response rating, Oat, Wild” value was determined as 30 with oat, wild [1] (setting [8]); 0 in the assay on oat, wild [6] (125 g ai/ha); 50 in the assay with oat, wild [6] (setting [9]). Further, in the assay with foxtail, giant (125 g ai/ha), the “Plant response rating, Foxtail, Giant” value is listed as 70. The “Pigweed, Palmer plant response rating” value with pigweed, palmer [2] (setting [7]) turned out to be 70. The pest or weed control at 250 g/ha in the assay on sedge, umbrella is 0%. Moreover, the “Plant response rating, Ryegrass, Italian” value with ryegrass, Italian [3] (125 g ai/ha) is listed as 40. Besides, the “Galium plant response rating” value with galium (setting [7]) was 60. In addition, in the assay with ryegrass, Italian [4] (setting [7]), the “Ryegrass, Italian plant response rating” value came out at 30. Besides, in the assay with barnyardgrass, the “Plant response rating, Barnyardgrass” value came out at 45. For the same molecule, in the assay on pigweed, palmer [5] (125 g ai/ha), the “Plant response rating, Pigweed, Palmer” value is recorded as 80. The “Soybean plant response rating” value in the assay with soybean (setting [7]) was 40. In addition, the plant injury at 500 g/ha with soybean (setting [8]) came out at 100%. The “Corn plant response rating” value with corn (setting [7]) was found to be 10. Besides, the Corn plant response rating (crop injury, 0 = no effect, 100 = complete kill) at 500 g/ha with corn (setting [8]) is 20%.
`CC(C)c1ncn(-c2cc(C(=O)N3C[C@H](C)Oc4c(Cl)cccc43)c3ccccc3c2)n1` [Compound 146]: the “Plant response rating, Horseweed” value in the assay with horseweed (setting [8]) is on record as 0. For the same molecule, the pest or weed control at 125 g/ha in the assay with horseweed (setting [10]) worked out at 0%; in the assay on foxtail, giant (Setaria faberi, pre-emergence, 240 h, 125 g ai/ha, read-out: Plant response rating, Foxtail, Giant), 80%; in the assay on pigweed, palmer [2] (setting [10]) it was 70%; in the assay on ryegrass, Italian [3] (125 g ai/ha) it was 30%; in the assay with galium (setting [10]) it was 50%; in the assay on ryegrass, Italian [4] (setting [10]), 20%. The pest or weed control at 125 g/ha with pigweed, palmer [5] (125 g ai/ha) was 90%; with oat, wild [6] (setting [11]), 0%. The “Oat, Wild plant response rating” value in the assay with oat, wild [1] (125 g ai/ha) amounted to 0. Besides, the “Plant response rating, Oat, Wild” value is 10 in the assay with oat, wild [1] (setting [8]) and 20 in the assay with oat, wild [6] (setting [9]). Also, in the assay on foxtail, giant (setting [9]), the “Plant response rating, Foxtail, Giant” value worked out at 100. Moreover, the “Plant response rating, Pigweed, Palmer” value in the assay on pigweed, palmer [2] (setting [8]) came to 70; in the assay with pigweed, palmer [5] (setting [9]), 100. Besides, the “Plant response rating, Sedge, Umbrella” value in the assay on sedge, umbrella was found to be 0. Besides, the “Plant response rating, Ryegrass, Italian” value in the assay with ryegrass, Italian [3] (setting [9]) stood at 70; in the assay on ryegrass, Italian [4] (setting [8]), 40. The “Plant response rating, Galium” value with galium (setting [8]) is recorded as 80. Moreover, the “Plant response rating, Barnyardgrass” value in the assay with barnyardgrass was 0. Moreover, the “Plant response rating, Soybean” value in the assay with soybean (setting [8]) amounted to 100. Further, the plant injury at 125 g/ha with soybean (setting [10]) is 50%; in the assay with corn (setting [10]), 10%. Besides, the “Plant response rating, Corn” value in the assay on corn (setting [8]) is listed as 30.
Regarding `CC(C)c1ncn(-c2cc3c(c(C(=O)N4C[C@H](C)Oc5c(Cl)cccc54)c2)OCC3)n1` [Compound 147], the pest or weed control at 125 g/ha was 0% in the assay with horseweed (setting [10]); 30% in the assay with oat, wild [1] (Avena fatua, post-emergence, 240 h, 125 g ai/ha, 0 to 100 scale (0 no effect, 100 complete control), read-out: Oat, Wild plant response rating); 80% in the assay on pigweed, palmer [2] (setting [10]); 90% in the assay with ryegrass, Italian [3] (125 g ai/ha); 100% in the assay on galium (setting [10]); 50% in the assay on ryegrass, Italian [4] (setting [10]). Moreover, the pest or weed control at 125 g/ha in the assay on pigweed, palmer [5] (125 g ai/ha) turned out to be 90%; in the assay on oat, wild [6] (setting [11]), 20%. Moreover, the pest or weed control at 500 g/ha in the assay on horseweed (setting [8]) was determined as 0%; with oat, wild [1] (Avena fatua, post-emergence, 240 h, 500 g ai/ha, visual injury, 0 to 100 scale (0 no effect, 100 complete control), read-out: Plant response rating, Oat, Wild) it was 80%; in the assay on pigweed, palmer [2] (setting [8]), 90%; in the assay on ryegrass, Italian [3] (setting [9]) it was 100%; with galium (setting [8]), 100%; with ryegrass, Italian [4] (setting [8]), 80%. In addition, the pest or weed control at 500 g/ha was 100% in the assay with pigweed, palmer [5] (setting [9]) and 90% in the assay on oat, wild [6] (Avena fatua, pre-emergence, 240 h, 500 g ai/ha, visual injury after 10 days, 0 is no effect, 100 is complete control, read-out: Plant response rating, Oat, Wild). The pest or weed control at 250 g/ha with sedge, umbrella was 95%; with barnyardgrass (Echinochloa crus-galli, 312 h, read-out: Plant response rating, Barnyardgrass), 0%. Also, the plant injury at 125 g/ha in the assay with soybean (setting [10]) is 100%; in the assay with corn (setting [10]), 10%. In the assay with soybean (setting [8]), the plant injury at 500 g/ha was 100%. In the assay with corn (setting [8]), this molecule displayed a Corn plant response rating (crop injury, 0 = no effect, 100 = complete kill) at 500 g/ha of 90%.
